Reference: patent US11701372B2, “Inhalation formulations of 1'-cyano substituted carba-nucleoside analogs” (priority 2020, dated 2023)
Where two headings read alike, the source gives them in different places.

Columns and labels:
[1] = format: physicochemical; conditions: for % assay/degs: T = 0
Procedure: For each condition, samples were staged at ambient and refrigerated conditions. Samples were analyzed for % assay/degs, appearance, reconstitution time, pH, and compared to T=0. The structures of the key impurities/metabolites are shown below.

[2] = In use testing of reconstituted solutions in IV bags and IV tubings; format: physicochemical
Description: The IV bags and IV tubings were sampled over time and tested for % assay/degradation.

[3] = PK following IV administration of Formula Ia in African Green Monkeys; parameters: species or system African Green Monkeys; conditions: monkey, in vivo; 10 mg/kg IV AGM; read-out: AUC0-t
in vivo = conditions: both, monkey, inhaled or intranasal
Procedure: The average deposited dose was calculated at 0.168 mg/kg and 0.536 mg/kg, respectively. Plasma, peripheral blood mononuclear cells (PBMCs), trachea, bronchi, lung lobe, liver, kidney, nasal mucosa and nasopharyngeal mucosa samples were collected in this study.

N#C[C@@]1(c2ccc3c(N)ncnn23)O[C@H](CO)[C@@H](O)[C@H]1O [Compound A]
% assay/degs, difference from T = 0 ([1]; pH 1.8, 2-8° C., 2 h): 0.00%
% assay/degs, difference from T = 0 ([1]; pH 1.8, 2-8° C., 3 h): 0.00%
% assay/degs, difference from T = 0 ([1]; pH 1.8, 2-8° C., 8 h): 0.00%
% assay/degs, difference from T = 0 ([1]; pH 1.8, 2-8° C., 24 h): 0.01%
% assay/degs, difference from T = 0 ([1]; pH 1.8, 2-8° C., 48 h): 0.02%
% assay/degs, difference from T = 0 ([1]; pH 1.8, Ambient, 1 h): 0.00%
% assay/degs, difference from T = 0 ([1]; pH 1.8, Ambient, 2 h): 0.00%
% assay/degs, difference from T = 0 ([1]; pH 1.8, Ambient, 3 h): 0.01%
% assay/degs, difference from T = 0 ([1]; pH 1.8, Ambient, 8 h): 0.01%
% assay/degs, difference from T = 0 ([1]; pH 1.8, Ambient, 24 h): 0.05%
% assay/degs, difference from T = 0 ([1]; pH 1.8, Ambient, 48 h): 0.09%
% assay/degs ([1]; pH 1.8): 0.02%
% assay/degs, difference from T = 0 ([1]; pH 2.0, 2-8° C., 2 h): 0.00%
% assay/degs, difference from T = 0 ([1]; pH 2.0, 2-8° C., 3 h): 0.00%
% assay/degs, difference from T = 0 ([1]; pH 2.0, 2-8° C., 8 h): 0.00%
% assay/degs, difference from T = 0 ([1]; pH 2.0, 2-8° C., 24 h): 0.00%
% assay/degs, difference from T = 0 ([1]; pH 2.0, 2-8° C., 48 h): 0.01%
% assay/degs, difference from T = 0 ([1]; pH 2.0, Ambient, 1 h): 0.00%
% assay/degs, difference from T = 0 ([1]; pH 2.0, Ambient, 2 h): 0.00%
% assay/degs, difference from T = 0 ([1]; pH 2.0, Ambient, 3 h): 0.00%
% assay/degs, difference from T = 0 ([1]; pH 2.0, Ambient, 8 h): 0.01%
% assay/degs, difference from T = 0 ([1]; pH 2.0, Ambient, 24 h): 0.03%
% assay/degs, difference from T = 0 ([1]; pH 2.0, Ambient, 48 h): 0.06%
% assay/degs ([1]; pH 2.0): 0.02%
% assay/degs, difference from T = 0 ([1]; pH 3.5, 2-8° C., 2 h): 0.00%
% assay/degs, difference from T = 0 ([1]; pH 3.5, 2-8° C., 8 h): 0.00%
% assay/degs, difference from T = 0 ([1]; pH 3.5, 2-8° C., 24 h): 0.00%
% assay/degs, difference from T = 0 ([1]; pH 3.5, 2-8° C., 48 h): 0.00%
% assay/degs, difference from T = 0 ([1]; pH 3.5, 2-8° C., 72 h): 0.00%
% assay/degs, difference from T = 0 ([1]; pH 3.5, 2-8° C., 96 h): 0.00%
% assay/degs, difference from T = 0 ([1]; pH 3.5, 2-8° C., 168 h): 0.00%
% assay/degs, difference from T = 0 ([1]; pH 3.5, Ambient, 2 h): 0.00%
% assay/degs, difference from T = 0 ([1]; pH 3.5, Ambient, 8 h): 0.00%
% assay/degs, difference from T = 0 ([1]; pH 3.5, Ambient, 24 h): 0.00%
% assay/degs, difference from T = 0 ([1]; pH 3.5, Ambient, 48 h): 0.00%
% assay/degs, difference from T = 0 ([1]; pH 3.5, Ambient, 72 h): 0.00%
% assay/degs, difference from T = 0 ([1]; pH 3.5, Ambient, 96 h): 0.01%
% assay/degs, difference from T = 0 ([1]; pH 3.5, Ambient, 168 h): 0.01%
% assay/degs ([1]; pH 3.5): 0.02%
% assay/degs, difference from T = 0 ([1]; pH 3.8, 2-8° C., 7.2 h): 0.00%
% assay/degs, difference from T = 0 ([1]; pH 3.8, 2-8° C., 24 h): 0.00%
% assay/degs, difference from T = 0 ([1]; pH 3.8, 2-8° C., 96 h): 0.00%
% assay/degs, difference from T = 0 ([1]; pH 3.8, 2-8° C., 168 h): 0.00%
% assay/degs, difference from T = 0 ([1]; pH 3.8, Ambient, 7.2 h): 0.00%
% assay/degs, difference from T = 0 ([1]; pH 3.8, Ambient, 24 h): 0.00%
% assay/degs, difference from T = 0 ([1]; pH 3.8, Ambient, 96 h): 0.00%
% assay/degs, difference from T = 0 ([1]; pH 3.8, Ambient, 168 h): 0.00%
% assay/degs ([1]; pH 3.8): 0.02%
% assay/degs, difference from T = 0 ([1]; pH 4.0, 2-8° C., 7.2 h): 0.00%
% assay/degs, difference from T = 0 ([1]; pH 4.0, 2-8° C., 24 h): 0.00%
% assay/degs, difference from T = 0 ([1]; pH 4.0, 2-8° C., 96 h): 0.00%
% assay/degs, difference from T = 0 ([1]; pH 4.0, 2-8° C., 168 h): 0.00%
% assay/degs, difference from T = 0 ([1]; pH 4.0, Ambient, 7.2 h): 0.00%
% assay/degs, difference from T = 0 ([1]; pH 4.0, Ambient, 24 h): 0.00%
% assay/degs, difference from T = 0 ([1]; pH 4.0, Ambient, 96 h): 0.00%
% assay/degs, difference from T = 0 ([1]; pH 4.0, Ambient, 168 h): 0.00%
% assay/degs ([1]; pH 4.0): 0.02%
% assay/degradation ([2]; 0 h, 0.3 mg/mL): 0.02 % w/w
% assay/degradation ([2]; 30 mg (IV Bag), Ambient 8 h): 0.02 % w/w
% assay/degradation ([2]; 30 mg (IV Bag), Ambient 24 h): 0.02 % w/w
% assay/degradation ([2]; 30 mg (IV Bag), T = 0 (2-8° C. series)): 0.02 % w/w
% assay/degradation ([2]; 30 mg (IV Tube), Ambient 6 Hours): 0.03 % w/w
% assay/degradation ([2]; 200 mg (IV Bag), 2-8° C. 24 h): 0.02 % w/w
% assay/degradation ([2]; 200 mg (IV Bag), 2-8° C. 48 h): 0.02 % w/w
% assay/degradation ([2]; 200 mg (IV Bag), Ambient 8 h): 0.02 % w/w
% assay/degradation ([2]; 200 mg (IV Bag), Ambient 24 h): 0.02 % w/w
% assay/degradation ([2]; 200 mg (IV Bag), T = 0 (2-8° C. series)): 0.02 % w/w
% assay/degradation ([2]; 200 mg in 100 mL 0.9% Saline (IV Bag), T = 0 (Ambient series)): 0.02 % w/w
% assay/degradation ([2]; 4 h, 0.3 mg/mL): 0.02 % w/w
% assay/degradation ([2]; 4 h, 2 mg/mL): 0.02 % w/w
% assay/degradation ([2]; 6 h, 2 mg/mL): 0.02 % w/w
% assay/degradation ([2]; 24 h, 0.3 mg/mL): 0.02 % w/w
% assay/degradation ([2]; 48 h, 0.3 mg/mL): 0.02 % w/w
AUC(0-t) [3]: 9.06 µM·h
Tmax (in vivo; 0.168 mg/kg): 1 h
Cmax (in vivo; 0.536 mg/kg): 71 ± 11 nM
Tmax (in vivo; 0.536 mg/kg): 2 h
